Experimental data from ChEMBL document CHEMBL1134332, “Design of remarkably simple, yet potent urea-based inhibitors of glutamate carboxypeptidase II (NAALADase)” (J Med Chem, 2001).
Values belong to the compound of their own block, whether it stands above or below them. Calls of active or inactive are those of the source. No cut-off for these calls is given here. Peptide text beside a SMILES is read from it.

Experiments:
[1] = biological target: Glutamate carboxypeptidase 2 (Rattus norvegicus) (UniProt P70627); test: Percentage inhibition at 1 uM; IA means inactive
[2] = biological target: Glutamate carboxypeptidase 2 (Rattus norvegicus) (UniProt P70627); test: Percentage inhibition at 1 uM against rat Glutamate carboxypeptidase II using a substrate concentration of 5 uM
[3] = biological target: T1, Glutamate carboxypeptidase 2 (Rattus norvegicus, UniProt P70627); test: Inhibitory activity against expressed rat Glutamate carboxypeptidase II, using a substrate concentration of 5 uM
[4] = biological target: Glutamate carboxypeptidase 2 (Rattus norvegicus) (UniProt P70627); test: Percentage inhibition at 1 uM against rat Glutamate carboxypeptidase II, using a substrate concentration of 5 uM
[5] = biological target: T1, Glutamate carboxypeptidase 2; test: Inhibitory activity against expressed rat Glutamate carboxypeptidase IIusing a substrate concentration of 5 uM
[6] = biological target: Glutamate carboxypeptidase 2 (Rattus norvegicus) (UniProt P70627); test: Percentage inhibition at 100 uM

T1 sequence (P70627 whole entry): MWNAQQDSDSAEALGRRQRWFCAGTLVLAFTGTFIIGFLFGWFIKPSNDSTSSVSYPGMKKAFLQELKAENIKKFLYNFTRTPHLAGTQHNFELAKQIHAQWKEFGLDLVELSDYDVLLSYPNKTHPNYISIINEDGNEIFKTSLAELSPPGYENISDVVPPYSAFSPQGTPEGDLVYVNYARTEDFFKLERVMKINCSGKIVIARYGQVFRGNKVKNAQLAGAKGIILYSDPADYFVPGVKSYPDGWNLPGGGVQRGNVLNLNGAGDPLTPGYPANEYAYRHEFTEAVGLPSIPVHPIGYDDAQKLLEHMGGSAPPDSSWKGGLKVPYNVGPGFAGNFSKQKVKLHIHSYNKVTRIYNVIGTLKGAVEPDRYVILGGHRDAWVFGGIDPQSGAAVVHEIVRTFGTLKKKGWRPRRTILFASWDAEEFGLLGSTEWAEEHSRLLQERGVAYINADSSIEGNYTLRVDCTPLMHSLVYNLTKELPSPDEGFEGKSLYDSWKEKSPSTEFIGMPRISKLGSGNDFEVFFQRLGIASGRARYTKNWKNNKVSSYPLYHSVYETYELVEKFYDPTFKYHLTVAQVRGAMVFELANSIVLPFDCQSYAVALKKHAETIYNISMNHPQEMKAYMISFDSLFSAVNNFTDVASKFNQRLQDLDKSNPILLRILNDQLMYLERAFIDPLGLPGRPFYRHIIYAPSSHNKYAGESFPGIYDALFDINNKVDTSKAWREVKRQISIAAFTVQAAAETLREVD
Chain of Glutamate carboxypeptidase 2 (Rattus norvegicus) (P70627 whole entry, looked up): as the sequence (P70627 whole entry) above

inhibition [2]: 10%
SMILES: CC(C)(C)NC(=O)N[C@@H](CCC(=O)O)C(=O)O

inhibition [2]: 46%
SMILES: O=C(O)CC[C@H](NC(=O)NCC(=O)O)C(=O)O

IC50 [3]: 6.9 nM
SMILES: O=C(O)CC[C@H](NC(=O)N[C@@H](CS)C(=O)O)C(=O)O

IC50 [3]: 29 nM
SMILES: CC(C)(C)SCC(NC(=O)N[C@@H](CCC(=O)O)C(=O)O)C(=O)O (stereo partly specified)

Continued, compound first:

SMILES: O=C(N[C@@H](CS)C(=O)O)N[C@@H](CS)C(=O)O
IA [1]: inactive

SMILES: O=C(O)CC[C@H](NC(=O)C(=O)N[C@@H](CCC(=O)O)C(=O)O)C(=O)O
inhibition [4]: 9%

SMILES: O=C(O)CCC(CP(=O)(O)O)C(=O)O (stereo unspecified)
IC50 [3]: 5.1 nM

SMILES: N[C@@H](CC(=O)O)C(=O)N[C@@H](CCC(=O)O)C(=O)O (H-Asp-Glu-OH)
IC50 [5]: 2400 nM

SMILES: O=C(O)CC[C@H](CP(=O)(O)C[C@@H](CCC(=O)O)C(=O)O)C(=O)O
IC50 [3]: 21.7 nM

SMILES: N[C@@H](CCC(=O)O)C(=O)N[C@@H](CCC(=O)O)C(=O)O (H-Glu-Glu-OH)
IC50 [3]: 750 nM

SMILES: N[C@@H](CC(=O)O)C(=O)N[C@@H](CC(=O)O)C(=O)O (H-Asp-Asp-OH)
inhibition [6]: 42%
